Data published in patent US9671415B2, “Immunoassay for pyrrolidinophenones” (RANDOX LABORATORIES LIMITED, priority 2014, dated 2017).
In brackets after ≈: the same amount, converted by molar mass. Several values for one entry are separate records, joined by “and”; a condition that tells them apart may be missing. Equal values may be shown once. Where a name gives a salt, the structure may show the parent alone.

How the values were obtained:
Antibody-1B = test: Competitive ELISA for pyrrolidinophenones, Antibody-1B with Tracer-1 (Example 10); assay type: binding, sheep; conditions: Antibody-1B coated at 2.5 μg/ml, Tracer-1 at 1/128k; for IC50 / % Cross-Reactivity: Table 2; for % Cross-Reactivity: relative to α-PVP = 100
Experimental: The purified polyclonal antibody from Example 9 (Antibody-1B) was immobilised on a 96 well ELISA plate at 2.5 μg/ml in 10 mM TRIS buffer, pH 8.5 overnight at 4° C. The assay is based on competition for binding sites of a polyclonal antibody between HRP tracer (Tracer-1) and α-PVP or potential cross-reactants. The plate was washed (×3) with TBST (Tris-Buffered Saline/Tween solution) and the calibrator (α-PVP) or potential cross reactants added (50 μl per well), followed by HRP tracer (Tracer-1) (75 μl/well) to the appropriate wells. The plates were then incubated for 60 minutes at 25° C. They were then subjected to 2 quick wash cycles using TBST, followed by 4×2 minute wash cycles. 125 μl of signal (TMB) was then added to each well for 20 mins at room temperature in the dark. The reaction was stopped by the addition of 125 μl of 0.2 M sulphuric acid per well and the plates read immediately at 450 nm. Calibration curves were generated using α-PVP and these were used to determine the sensitivity and specificity of the immunoassay for potential cross-reactants. The data was inputted to a computer program called KC Junior (Biotek). It gives a 4 parameter fit curve and allows the calculation of concentrations between the standard runs. This program is used to calculate the IC50 values by dividing the 0 ng/ml optical density (OD) value by 2 and obtaining the concentration value from the curve for this OD. The results of this study are presented in Tables 1 and 2, cross-reactivity being calculated according to the following formula: % CR=[…]/IC50 CR×100 wherein % CR is the percentage cross-reactivity, IC50 α-PVP is the concentration of α-PVP which causes 50% displacement of signal and IC50 CR is the concentration of potential cross-reactant that causes 50% displacement of signal.
Antibody-1B (Example 9) used to generate the data in the tables below was raised from Immunogen-1B (Example 7) and the HRP tracer (Tracer-1) was prepared as in Example 8. All of the compounds in Table 2 are commercially available from suppliers such as Cayman Chemical (Ann Arbor, Mich., USA).

α-PVP antibody = test: α-PVP/MDPV ELISA kit validation assay (Example 11); assay type: binding; conditions: for % CR: calculated with reference to the standard of that run; for Reactant IC50: standard concentration which produced 50% B/B0 in that run; for % Cross-Reactivity: α-PVP/MDPV ELISA kit specificity, relative to α-PVP = 100, Table 10
Experimental: A microtitre plate was precoated with α-PVP antibody. α-PVP (antigen), if present in the sample competes with the horseradish peroxidase labelled α-PVP (enzyme labelled antigen) for a limited number of antibody sites on the microtitre plate. After incubation at room temperature to allow a competition reaction to take place, the microtitre plate was washed to remove excess reagents. The enzyme substrate was added. After an incubation period to allow maximum colour development, the colour reaction was stopped by the addition of acid. This produces a colour change from blue to yellow, and the absorbances are read at 450 nm. A standard curve was then constructed to determine the α-PVP concentration in the sample.
2. Urine samples were diluted 1:50 with diluent (I.e. 10 μl sample+490 μl diluent).
• 1. Whole blood samples were diluted 1:50 with diluent (i.e. 10 μl sample+490 μL diluent). • 2. The sample was mixed gently by pipetting without the formation of foam. Procedure
The assay was performed in duplicate. The layout of Table 4 was used where each box represents 2 wells:
a) Table 5 details what was pipetted into the appropriate wells of the microtitre plate:
b) The microtitre plate was gently tapped from side to side for a few seconds. c) The microtitre plate was covered with a plate sealer before incubating for 30 minutes at room temperature (+15° C. to +25° C.) in the dark. d) The plate was inverted and the liquid tapped out liquid. e) The plate was washed 6 times with diluted wash buffer (ensuring all wells were filled), over a 10-15 minute period. After the final wash the liquid was discarded liquid and the plate was tapped onto lint free tissue paper until completely dry. f) Immediately after washing, one 125 μl shot of substrate was pipetted into each well using a multichannel pipette. The microtitre plate was gently tapped from side to side and incubated for 20±2 minutes at room temperature (+15 to +25° C.) in the dark. g) The colour reaction was stopped by the addition of 100 μl of stop solution per well. A colour change from blue to yellow resulted. h) The optical density was measured at 450 nm within 10 minutes of stopping the colour reaction. The use of a 630 nm filter was used as the reference wavelength. […] Assay Cut-Off
Equally, pyrrolidinopentiothiophenone and mdpbp were assessed in the same run; and mdppp and α-pyrrolidinopropiophenone were assessed in the same run. […] The Reactant IC50s (i.e. ^2 in the table above) are the standard concentrations which produced 50% B/B0 in that run. The % CR (last column in the table above) is calculated with reference to the standard used in that particular run.

Antibodies in EP2626358 = conditions: immunoassay of EP2626358; cited from earlier work
[1] = unit not given, Table 11, in ng/mL

Structure (SMILES) | IC50 (Antibody-1B) | % Cross-Reactivity (Antibody-1B) | % CR (α-PVP antibody; Table 11) | Reactant IC50 (α-PVP antibody; [1]) | % Cross-Reactivity (α-PVP antibody) | other results
CCCC(C(=O)c1ccc(C)cc1)N1CCCC1 (stereo not drawn) [Pyrovalerone, 4-Methyl-α-pyrrolidinopentiophenone] | 0.168 ng/mL (≈ 0.685 nM) | 187.500% | 125.4% | 0.122 | 125.4% | –
CCCC(C(=O)c1cccs1)N1CCCC1 (stereo not drawn) [α-Pyrrolidinopentiothiophenone HCl, α-Pyrrolidinopentiothiophenone] | – | – | 73.2% | 0.246 | 73.2% | –
CCCC(C(=O)c1ccccc1)N1CCCC1 (stereo not drawn) [α-PVP, α-Pyrrolidinovalerophenone] | 0.315 ng/mL (≈ 1.36 nM) | 100% | 100% | 0.153 | 100% | IC50 (standard concentration which produces 50% B/B0) (Antibody-1B; standard α-PVP, Table 1): 0.315 ng/mL (≈ 1.36 nM); cross-reactivity (Antibodies in EP2626358): very low; STD IC50 (α-PVP antibody; IC50 of the standard (alpha-pvp) in the same run as the reactant of the line, unit not given, Table 11, in ng/mL): 0.18 and 0.153 and 0.149
CNC(C)C(=O)c1ccc(F)cc1 (stereo not drawn) [4-Fluoromethcathinone, 4-fluoro-N-methylcathinone] | – | – | – | – | <1% | –
CNC(C)C(=O)c1ccc(OC)cc1 (stereo not drawn) [Methedrone] | – | – | – | – | <1% | –
CNC(C)C(=O)c1ccc(C)cc1 (stereo not drawn) [Mephedrone] | – | – | – | – | <1% | –
CCC(C(=O)c1ccc2c(c1)OCO2)N1CCCC1 (stereo not drawn) [MDPBP, 3′,4′-Methylenedioxy-α-pyrrolidinobutiophenone] | 1.532 ng/mL (≈ 5.86 nM) | 20.561% | 17.2% | 1.044 | 17.2% | –
CCCC(C(=O)c1ccc(OC)cc1)N1CCCC1 (stereo not drawn) [4-Methoxy-α-pyrrolidinopentiophenone, 4′-Methoxy-α-pyrrolidinopentiophenone] | 0.233 ng/mL (≈ 0.891 nM) | 135.193% | – | – | – | –
CCC(C(=O)c1ccc(C)cc1)N1CCCC1 (stereo not drawn) [4′-Methyl-α-pyrrolidinobutiophenone] | – | – | – | – | 23.2% | –
CCCC(C(=O)c1ccc2c(c1)OCO2)N1CCCC1 (stereo not drawn) [MDPV, 3′,4′-Methylenedioxy-α-pyrrolidinopentiophenone] | 0.176 ng/mL (≈ 0.639 nM) | 178.977% | 93.3% | 0.164 | 93.3% | –
CNC(C)C(=O)c1ccc2c(c1)OCO2 (stereo not drawn) [Methylone] | – | – | – | – | <1% | –
CCCCC(C(=O)c1ccc(C)cc1)N1CCCC1 (stereo not drawn) [4′-Methyl-α-pyrrilidinohexylphenone] | – | – | – | – | 38.1% | –
CCCCCC(C(=O)c1ccc(OC)cc1)N1CCCC1.Cl (stereo not drawn) [4-Methoxy-PV8 HCl, 1-(4-methoxyphenyl)-2-(pyrrolidin-1-yl)heptan-1-one, hydrochloride] | – | – | – | – | 11.7% | –
CC(C(=O)c1ccccc1)N1CCCC1 (stereo not drawn) [α-Pyrrolidinopropiophenone] | >10 ng/mL | <3.150% | 0.8% | 18.744 | 0.8% | –
CCCCCCC(C(=O)c1ccc(F)cc1)N1CCCC1.Cl (stereo not drawn) [4-Fluoro-PV9 HCl, 1-(4-fluorophenyl)-2-(pyrrolidin-1-yl)octan-1-one, monohydrochloride] | – | – | – | – | 3.2% | –
CCCC(NC)C(=O)c1ccc2c(c1)OCO2 (stereo not drawn) [Pentylone, 1-(1,3-benzodioxol-5-yl)-2-(methylamino)pentan-1-one] | – | – | – | – | <1% | –
CCCC(C(=O)c1ccc2ccccc2c1)N1CCCC1 (stereo not drawn) [Naphyrone, 1-(naphthalen-2-yl)-2-(pyrrolidin-1-yl)pentan-1-one] | 0.221 ng/mL (≈ 0.785 nM) | 142.534% | 70.2% | 0.218 | 70.2% | –
CC(C(=O)c1ccc2c(c1)OCO2)N1CCCC1 (stereo not drawn) [3′,4′-Methylenedioxy-α-pyrrolidinopropiophenone] | – | – | 0.8% | 17.727 | 0.8% | –
CCC(NC)C(=O)c1ccc2c(c1)OCO2 (stereo not drawn) [Butylone, 1-(1,3-benzodioxol-5-yl)-2-(methylamino)butan-1-one] | – | – | – | – | <1% | –
Cc1ccc(C(=O)C(C)N2CCCC2)cc1 (racemic) [4′-Methyl-α-pyrrolidinopropiophenone] | >10 ng/mL | <3.150% | – | – | 1.8% | –
